# Measurements from ChEMBL document CHEMBL1152576, “E-Combretastatin and E-resveratrol structural modifications: antimicrobial and cancer cell growth inhibitory beta-E-nitrostyrenes” (Bioorg Med Chem, 2009).
# Activity calls are given as the source filed them. No cut-off for these calls is given here.
# System: KM-20L2
# Assay: Cytotoxicity against human KM20L2 cells after 48 hrs by sulforhodamine B assay
# Assay type: functional
# Conditions: KM-20L2, 48 h
row,SMILES,GI50 [µg/mL]
1,COc1cc(/C=C/[N+](=O)[O-])cc(OC)c1OC,1.3
2,COc1ccc(/C=C/[N+](=O)[O-])cc1OC,1.3

# System: Micrococcus luteus
# Assay: Antimicrobial activity against Micrococcus luteus Presque Isle 456 by broth microdilution susceptibility assay
# Assay type: functional
# Conditions: not given
row,SMILES,MIC [µg/mL]
1,COc1cc(/C=C/[N+](=O)[O-])cc(OC)c1OC,> 64
2,COc1ccc(/C=C/[N+](=O)[O-])cc1OC,> 64

# System: Stenotrophomonas maltophilia
# Assay: Antimicrobial activity against Stenotrophomonas maltophilia ATCC 13637 assessed clear zone in inhibition per disk by CLSI disk diffusion susceptibility assay
# Assay type: functional
# Conditions: not given
row,SMILES,MIC [µg]
1,COc1cc(/C=C/[N+](=O)[O-])cc(OC)c1OC,>100
2,COc1ccc(/C=C/[N+](=O)[O-])cc1OC,>100

# System: NCI-H460
# Assay: Cytotoxicity against human NCI-H460 cells after 48 hrs by sulforhodamine B assay
# Assay type: functional
# Conditions: NCI-H460, 48 h
row,SMILES,GI50 [µg/mL]
1,COc1cc(/C=C/[N+](=O)[O-])cc(OC)c1OC,1.1
2,COc1ccc(/C=C/[N+](=O)[O-])cc1OC,0.46

# System: OVCAR-3
# Assay: Cytotoxicity against human OVCAR-3 cells after 48 hrs by sulforhodamine B assay
# Assay type: functional
# Conditions: not given
row,SMILES,GI50
1,COc1ccc(/C=C/[N+](=O)[O-])cc1OC,inactive

# Same assay, conditions: OVCAR-3, 48 h
row,SMILES,GI50 [µg/mL]
1,COc1cc(/C=C/[N+](=O)[O-])cc(OC)c1OC,0.42

# System: Candida albicans
# Assay: Antifungal activity against Candida albicans ATCC 90028 after 24 hrs by broth microdilution susceptibility assay
# Assay type: functional
# Conditions: ATCC 90028, 24 h
row,SMILES,MFC [µg/mL]
1,COc1cc(/C=C/[N+](=O)[O-])cc(OC)c1OC,32
2,COc1ccc(/C=C/[N+](=O)[O-])cc1OC,16

# System: Enterococcus faecalis
# Assay: Antimicrobial activity against Enterococcus faecalis ATCC 29212 by broth microdilution susceptibility assay
# Assay type: functional
# Conditions: not given
row,SMILES,MIC [µg/mL]
1,COc1cc(/C=C/[N+](=O)[O-])cc(OC)c1OC,> 64
2,COc1ccc(/C=C/[N+](=O)[O-])cc1OC,> 64

# System: Candida albicans
# Assay: Antimicrobial activity against Candida albicans ATCC 90028 assessed clear zone in inhibition per disk by CLSI disk diffusion susceptibility assay
# Assay type: functional
# Conditions: not given
row,SMILES,MIC [µg]
1,COc1cc(/C=C/[N+](=O)[O-])cc(OC)c1OC,3.12
2,COc1ccc(/C=C/[N+](=O)[O-])cc1OC,6.25

# System: Streptococcus pneumoniae
# Assay: Antimicrobial activity against Streptococcus pneumoniae ATCC 6303 by broth microdilution susceptibility assay
# Assay type: functional
# Conditions: not given
row,SMILES,MIC [µg/mL]
1,COc1cc(/C=C/[N+](=O)[O-])cc(OC)c1OC,> 64
2,COc1ccc(/C=C/[N+](=O)[O-])cc1OC,> 64

# System: Escherichia coli
# Assay: Antimicrobial activity against Escherichia coli ATCC 25922 assessed clear zone in inhibition per disk by CLSI disk diffusion susceptibility assay
# Assay type: functional
# Conditions: not given
row,SMILES,MIC [µg]
1,COc1cc(/C=C/[N+](=O)[O-])cc(OC)c1OC,>100
2,COc1ccc(/C=C/[N+](=O)[O-])cc1OC,25

# System: SF-268
# Assay: Cytotoxicity against human SF268 cells after 48 hrs by sulforhodamine B assay
# Assay type: functional
# Conditions: not given
row,SMILES,GI50
1,COc1cc(/C=C/[N+](=O)[O-])cc(OC)c1OC,inactive

# Same assay, conditions: SF-268, 48 h
row,SMILES,GI50 [µg/mL]
1,COc1ccc(/C=C/[N+](=O)[O-])cc1OC,0.71

# System: Staphylococcus aureus
# Assay: Antimicrobial activity against Staphylococcus aureus ATCC 29213 assessed clear zone in inhibition per disk by CLSI disk diffusion susceptibility assay
# Assay type: functional
# Conditions: not given
row,SMILES,MIC [µg]
1,COc1cc(/C=C/[N+](=O)[O-])cc(OC)c1OC,12.5
2,COc1ccc(/C=C/[N+](=O)[O-])cc1OC,25

# System: Cryptococcus neoformans
# Assay: Antifungal activity against Cryptococcus neoformans ATCC 90112 after 72 hrs by broth microdilution susceptibility assay
# Assay type: functional
# Conditions: ATCC 90112, 72 h
row,SMILES,MIC [µg/mL]
1,COc1cc(/C=C/[N+](=O)[O-])cc(OC)c1OC,16
2,COc1ccc(/C=C/[N+](=O)[O-])cc1OC,16

# System: BXPC-3
# Assay: Cytotoxicity against human BxPC3 cells after 48 hrs by sulforhodamine B assay
# Assay type: functional
# Conditions: BXPC-3, 48 h
row,SMILES,GI50 [µg/mL]
1,COc1cc(/C=C/[N+](=O)[O-])cc(OC)c1OC,1.4
2,COc1ccc(/C=C/[N+](=O)[O-])cc1OC,1.5

# System: Enterobacter cloacae
# Assay: Antimicrobial activity against Enterobacter cloacae ATCC 13047 assessed clear zone in inhibition per disk by CLSI disk diffusion susceptibility assay
# Assay type: functional
# Conditions: not given
row,SMILES,MIC [µg]
1,COc1cc(/C=C/[N+](=O)[O-])cc(OC)c1OC,>100
2,COc1ccc(/C=C/[N+](=O)[O-])cc1OC,>100

# System: Neisseria gonorrhoeae
# Assay: Antimicrobial activity against Neisseria gonorrhoeae ATCC 49226 by broth microdilution susceptibility assay
# Assay type: functional
# Conditions: not given
row,SMILES,MIC [µg/mL]
1,COc1cc(/C=C/[N+](=O)[O-])cc(OC)c1OC,4
2,COc1ccc(/C=C/[N+](=O)[O-])cc1OC,4

# System: Neisseria gonorrhoeae
# Assay: Antimicrobial activity against Neisseria gonorrhoeae ATCC 49226 after 24 hrs by broth microdilution susceptibility assay
# Assay type: functional
# Conditions: ATCC 49226, 24 h
row,SMILES,MBC [µg/mL]
1,COc1cc(/C=C/[N+](=O)[O-])cc(OC)c1OC,8
2,COc1ccc(/C=C/[N+](=O)[O-])cc1OC,4

# System: Streptococcus pneumoniae
# Assay: Antimicrobial activity against Streptococcus pneumoniae ATCC 6303 assessed clear zone in inhibition per disk by CLSI disk diffusion susceptibility assay
# Assay type: functional
# Conditions: not given
row,SMILES,MIC [µg]
1,COc1cc(/C=C/[N+](=O)[O-])cc(OC)c1OC,3.12
2,COc1ccc(/C=C/[N+](=O)[O-])cc1OC,12.5

# System: Enterobacter cloacae
# Assay: Antimicrobial activity against Enterobacter cloacae ATCC 13047 by broth microdilution susceptibility assay
# Assay type: functional
# Conditions: not given
row,SMILES,MIC [µg/mL]
1,COc1cc(/C=C/[N+](=O)[O-])cc(OC)c1OC,> 64
2,COc1ccc(/C=C/[N+](=O)[O-])cc1OC,> 64

# System: Cryptococcus neoformans
# Assay: Antifungal activity against Cryptococcus neoformans ATCC 90112 after 48 hrs by broth microdilution susceptibility assay
# Assay type: functional
# Conditions: ATCC 90112, 48 h
row,SMILES,MFC [µg/mL]
1,COc1cc(/C=C/[N+](=O)[O-])cc(OC)c1OC,16
2,COc1ccc(/C=C/[N+](=O)[O-])cc1OC,16

# System: A498
# Assay: Cytotoxicity against human A498 cells after 48 hrs by sulforhodamine B assay
# Assay type: functional
# Conditions: not given
row,SMILES,GI50
1,COc1cc(/C=C/[N+](=O)[O-])cc(OC)c1OC,inactive
2,COc1ccc(/C=C/[N+](=O)[O-])cc1OC,inactive

# System: Stenotrophomonas maltophilia
# Assay: Antimicrobial activity against Stenotrophomonas maltophilia ATCC 13637 by broth microdilution susceptibility assay
# Assay type: functional
# Conditions: not given
row,SMILES,MIC [µg/mL]
1,COc1cc(/C=C/[N+](=O)[O-])cc(OC)c1OC,> 64
2,COc1ccc(/C=C/[N+](=O)[O-])cc1OC,> 64

# System: Staphylococcus aureus
# Assay: Antimicrobial activity against Staphylococcus aureus ATCC 29213 by broth microdilution susceptibility assay
# Assay type: functional
# Conditions: not given
row,SMILES,MIC [µg/mL]
1,COc1cc(/C=C/[N+](=O)[O-])cc(OC)c1OC,> 64
2,COc1ccc(/C=C/[N+](=O)[O-])cc1OC,> 64

# System: P388
# Assay: Cytotoxicity against mouse P388 cells after 48 hrs by sulforhodamine B assay
# Assay type: functional
# Conditions: P388, 48 h, read-out: ED50 (the source's name)
row,SMILES,EC50 [µg/mL]
1,COc1cc(/C=C/[N+](=O)[O-])cc(OC)c1OC,1.1
2,COc1ccc(/C=C/[N+](=O)[O-])cc1OC,0.34

# System: Candida albicans
# Assay: Antifungal activity against Candida albicans ATCC 90028 after 48 hrs by broth microdilution susceptibility assay
# Assay type: functional
# Conditions: ATCC 90028, 48 h
row,SMILES,MIC [µg/mL]
1,COc1cc(/C=C/[N+](=O)[O-])cc(OC)c1OC,32
2,COc1ccc(/C=C/[N+](=O)[O-])cc1OC,16

# System: Micrococcus luteus
# Assay: Antimicrobial activity against Micrococcus luteus Presque Isle 456 assessed clear zone in inhibition per disk by CLSI disk diffusion susceptibility assay
# Assay type: functional
# Conditions: not given
row,SMILES,MIC [µg]
1,COc1cc(/C=C/[N+](=O)[O-])cc(OC)c1OC,25
2,COc1ccc(/C=C/[N+](=O)[O-])cc1OC,50

# System: SF-295
# Assay: Cytotoxicity against human SF295 cells after 48 hrs by sulforhodamine B assay
# Assay type: functional
# Conditions: not given
row,SMILES,GI50
1,COc1ccc(/C=C/[N+](=O)[O-])cc1OC,inactive

# Same assay, conditions: SF-295, 48 h
row,SMILES,GI50 [µg/mL]
1,COc1cc(/C=C/[N+](=O)[O-])cc(OC)c1OC,1.3

# System: not listed separately
# Assay: Inhibition of tubulin polymerization
# Conditions: not given
row,SMILES,IC50 [µM]
1,COc1cc(/C=C/[N+](=O)[O-])cc(OC)c1OC,4.5
2,COc1ccc(/C=C/[N+](=O)[O-])cc1OC,6

# System: Neisseria gonorrhoeae
# Assay: Antimicrobial activity against Neisseria gonorrhoeae ATCC 49226 assessed clear zone of inhibition measured per disk by CLSI disk diffusion susceptibility assay
# Assay type: functional
# Conditions: not given
row,SMILES,MIC [µg]
1,COc1cc(/C=C/[N+](=O)[O-])cc(OC)c1OC,0.78
2,COc1ccc(/C=C/[N+](=O)[O-])cc1OC,0.78

# System: SK-MEL-5
# Assay: Cytotoxicity against human SK-MEL-5 cells after 48 hrs by sulforhodamine B assay
# Assay type: functional
# Conditions: not given
row,SMILES,GI50
1,COc1cc(/C=C/[N+](=O)[O-])cc(OC)c1OC,inactive
2,COc1ccc(/C=C/[N+](=O)[O-])cc1OC,inactive

# System: Enterococcus faecalis
# Assay: Antimicrobial activity against Enterococcus faecalis ATCC 29212 assessed clear zone in inhibition per disk by CLSI disk diffusion susceptibility assay
# Assay type: functional
# Conditions: not given
row,SMILES,MIC [µg]
1,COc1cc(/C=C/[N+](=O)[O-])cc(OC)c1OC,50
2,COc1ccc(/C=C/[N+](=O)[O-])cc1OC,25

# System: Cryptococcus neoformans
# Assay: Antimicrobial activity against Cryptococcus neoformans ATCC 90112 assessed clear zone in inhibition per disk by CLSI disk diffusion susceptibility assay
# Assay type: functional
# Conditions: not given
row,SMILES,MIC [µg]
1,COc1cc(/C=C/[N+](=O)[O-])cc(OC)c1OC,3.12
2,COc1ccc(/C=C/[N+](=O)[O-])cc1OC,3.12

# System: Escherichia coli
# Assay: Antimicrobial activity against Escherichia coli ATCC 25922 by broth microdilution susceptibility assay
# Assay type: functional
# Conditions: not given
row,SMILES,MIC [µg/mL]
1,COc1cc(/C=C/[N+](=O)[O-])cc(OC)c1OC,> 64
2,COc1ccc(/C=C/[N+](=O)[O-])cc1OC,> 64

# System: MCF7
# Assay: Cytotoxicity against human MCF7 cells after 48 hrs by sulforhodamine B assay
# Assay type: functional
# Conditions: not given
row,SMILES,GI50
1,COc1cc(/C=C/[N+](=O)[O-])cc(OC)c1OC,inactive

# Same assay, conditions: MCF7, 48 h
row,SMILES,GI50 [µg/mL]
1,COc1ccc(/C=C/[N+](=O)[O-])cc1OC,0.53

# System: DU-145
# Assay: Cytotoxicity against human DU145 cells after 48 hrs by sulforhodamine B assay
# Assay type: functional
# Conditions: DU-145, 48 h
row,SMILES,GI50 [µg/mL]
1,COc1cc(/C=C/[N+](=O)[O-])cc(OC)c1OC,1
2,COc1ccc(/C=C/[N+](=O)[O-])cc1OC,1.4
